Laboratory results reported in ChEMBL document CHEMBL3603813, “Quinoline-based antimalarial hybrid compounds” (Bioorg Med Chem, 2015).

Key:
Plasmodium falciparum [1] = assay: Antiplasmodial activity against CQ-sensitive Plasmodium falciparum D6; format: functional
Plasmodium falciparum [2] = assay: Antiplasmodial activity against CQ-resistant Plasmodium falciparum Dd2; format: functional, organism-based; settings: for IC50: Plasmodium falciparum, Dd2
Plasmodium falciparum [3] = assay: Antiplasmodial activity against CQ-resistant Plasmodium falciparum 7G8; format: functional
Plasmodium berghei = assay: Antimalarial activity against Plasmodium berghei infected in human HuH7 cells assessed as inhibition of liver cell infection; format: functional, organism-based; settings: Huh-7, Liver
Plasmodium falciparum [4] = assay: Antiplasmodial activity against CQ-resistant Plasmodium falciparum W2 assessed as inhibition of parasite growth; format: functional, organism-based
Plasmodium falciparum [5] = assay: Antiplasmodial activity against CQ-sensitive Plasmodium falciparum 3D7; format: functional, organism-based; settings: for IC50: Plasmodium falciparum, 3D7
[6] = Inhibition of beta-hematin formation; format: physicochemical
Plasmodium falciparum [7] = assay: Antiplasmodial activity against CQ-sensitive Plasmodium falciparum D10; format: functional, organism-based
Plasmodium falciparum [8] = assay: Antiplasmodial activity against CQ-resistant Plasmodium falciparum K1; format: functional, organism-based
Plasmodium falciparum [9] = assay: Antiplasmodial activity against CQ-resistant Plasmodium falciparum FCR3; format: functional, organism-based

Clc1ccc2c(NCCCCN3CCN(C(c4ccccc4)c4ccccc4)CC3)ccnc2c1
Activity (Plasmodium falciparum [1]): 0.5 nM
Activity (Plasmodium falciparum [2]): 1 nM
Activity (Plasmodium falciparum [3]): 2 nM

COc1cc(NC(C)CCCNC(=O)C2CCC3(CC2)OOC2(OO3)C3CC4CC(C3)CC2C4)c2ncccc2c1 (centres undefined)
IC50 (Plasmodium berghei): 330 nM

COc1cc(NC(C)CCCNCC2CCC3(CC2)OOC2(OO3)C3CC4CC(C3)CC2C4)c2ncccc2c1 (centres undefined)
IC50 (Plasmodium falciparum [4]): 21 nM
IC50 (Plasmodium berghei): 330 nM

O=C1/C(=C/c2ccccc2[N+](=O)[O-])SC(=S)N1CCCNc1ccnc2cc(Cl)ccc12
IC50 (Plasmodium falciparum [5]): < 100 nM

CN(C)c1ccc(/C=C/C(=O)c2cccc(Nc3ccnc4cc(Cl)ccc34)c2)cc1
inhibition (INH) [6]: 94%

C=C[C@H]1CN2CC[C@H]1C[C@H]2[C@H](OC(=O)CNC(=O)c1cn2c3c(c(N4CCN(C)CC4)c(F)cc3c1=O)CC[C@H]2C)c1ccnc2ccc(OC)cc12
IC50 (Plasmodium falciparum [5]): 12 nM

Clc1ccc2c(NCCCN3CCN(CC(c4ccccc4)c4ccccc4)CC3)ccnc2c1
Activity (Plasmodium falciparum [1]): 0.5 nM
Activity (Plasmodium falciparum [2]): 1 nM
Activity (Plasmodium falciparum [3]): 2 nM

Cc1c(O)c(=O)ccn1CCCCCCNc1ccnc2cc(Cl)ccc12
IC50 (Plasmodium falciparum [5]): 4 nM

C[C@H]1[C@@H](OCc2ccc(C(=O)N(CCNc3ccnc4cc(Cl)ccc34)CC(=O)NC3CCCCC3)cc2)O[C@@H]2O[C@@]3(C)CC[C@H]4[C@H](C)CC[C@@H]1[C@@]24OO3
IC50 (Plasmodium falciparum [7]): 26 nM
IC50 (Plasmodium falciparum [8]): 19 nM

O=C(N[C@H](c1ccccc1)[C@H](O)C(=O)OCCCNc1ccnc2cc(Cl)ccc12)c1ccccc1
IC50 (Plasmodium falciparum [4]): 130 nM

O=C(N[C@H](c1ccccc1)[C@H](O)C(=O)NCc1cn(-c2cccc(Nc3ccnc4cc(Cl)ccc34)c2)nn1)c1ccccc1
IC50 (Plasmodium falciparum [8]): 390 nM
IC50 (Plasmodium falciparum [4]): 280 nM

C=C[C@H]1CN2CC[C@H]1C[C@H]2[C@H](O)c1ccnc2ccc(OC)cc12 [QUININE]
IC50 (Plasmodium falciparum [5]): 18 nM

CCc1c(O)c(=O)ccn1CCCCNc1ccnc2cc(Cl)ccc12
IC50 (Plasmodium falciparum [5]): < 1000 nM

O=C(/C=C/c1ccccc1)c1cccc(Nc2ccnc3cc(Cl)ccc23)c1
inhibition (INH) [6]: 94%

Cc1ccc(N2C(=O)[C@H](NC(=O)CCCCCNc3ccnc4cc(Cl)ccc34)[C@@H]2/C=C/c2ccccc2)cc1
IC50 (Plasmodium falciparum [4]): 80 nM

COc1cc(NC(C)CCCN)c2ncccc2c1 (centres undefined) [PRIMAQUINE]
IC50 (Plasmodium berghei): 7500 nM

O=C(NCCNc1cccc2cc(Cl)ccc12)N[C@H]1C(=O)N(C2CCCCC2)[C@H]1/C=C/c1ccccc1
IC50 (Plasmodium falciparum [4]): 42 nM

O=C(NCCCNc1cccc2cc(Cl)ccc12)N[C@H]1C(=O)N(C2CCCCC2)[C@H]1/C=C/c1ccccc1
IC50 (Plasmodium falciparum [4]): 42 nM

CCN1CNc2cc(Nc3ccnc4cc(Cl)ccc34)ccc2C1
IC50 (Plasmodium falciparum [8]): 220 nM
IC50 (Plasmodium falciparum [4]): 130 nM

C=C[C@H]1CN2CC[C@H]1C[C@H]2[C@H](OC(=O)CNC(=O)c1cn(C2CC2)c2nc(N3CCN(CC)CC3)c(F)cc2c1=O)c1ccnc2ccc(OC)cc12
IC50 (Plasmodium falciparum [5]): 12 nM

Cc1ccc(N2C(=O)[C@@H](NCCNc3ccnc4cc(Cl)ccc34)[C@H]2/C=C/c2ccccc2)cc1
IC50 (Plasmodium falciparum [4]): 80 nM

O=C(NCCCCNc1ccnc2cc(Cl)ccc12)C(=O)N[C@@H]1C(=O)N(C2CCCCC2)[C@@H]1/C=C/c1ccccc1
IC50 (Plasmodium falciparum [4]): 34 nM

O=C(N[C@H](c1ccccc1)[C@H](O)C(=O)NCc1cn(CCNc2ccnc3cc(Cl)ccc23)nn1)c1ccccc1
IC50 (Plasmodium falciparum [8]): 390 nM
IC50 (Plasmodium falciparum [4]): 280 nM

C[C@H]1[C@@H](OCCN(CCCNc2ccnc3cc(Cl)ccc23)CCO[C@H]2O[C@@H]3O[C@@]4(C)CC[C@H]5[C@H](C)CC[C@@H]([C@H]2C)[C@@]35OO4)O[C@@H]2O[C@@]3(C)CC[C@H]4[C@H](C)CC[C@@H]1[C@@]24OO3
Activity (Plasmodium falciparum [5]): 9 nM

Cc1ccc(N2C(=O)[C@H](NC(=O)CCCNc3ccnc4cc(Cl)ccc34)[C@@H]2/C=C/c2ccccc2)cc1
IC50 (Plasmodium falciparum [4]): 80 nM

Cc1ccc(N2C(=O)[C@@H](NC(=O)C(=O)NCCCNc3ccnc4cc(Cl)ccc34)[C@H]2/C=C/c2ccccc2)cc1
IC50 (Plasmodium falciparum [4]): 34 nM

CN(C)c1ccc(C(=O)N[C@@H](CCCCCC(=O)NO)C(=O)Nc2cccc3cccnc23)cc1
IC50 (Plasmodium falciparum [5]): 13 nM
IC50 (Plasmodium falciparum [2]): 33 nM

O=C(NCCCCCCNc1ccnc2cc(Cl)ccc12)N[C@H]1C(=O)N(C2CCCCC2)[C@H]1/C=C/c1ccccc1
IC50 (Plasmodium falciparum [4]): 42 nM

O=[N+]([O-])c1ccccc1S(=O)(=O)N1CCN(c2ccnc3cc(Cl)ccc23)CC1
IC50 (Plasmodium falciparum [9]): 1200 nM

CCc1c(O)c(=O)ccn1CCCCCCNc1ccnc2cc(Cl)ccc12
IC50 (Plasmodium falciparum [5]): < 1000 nM

Cc1c(O)c(=O)ccn1CCCCNc1ccnc2cc(Cl)ccc12
IC50 (Plasmodium falciparum [5]): < 1000 nM

O=C(/C=C/c1ccccc1)N[C@@H](CCCCCC(=O)NO)C(=O)Nc1cccc2cccnc12
IC50 (Plasmodium falciparum [5]): 13 nM
IC50 (Plasmodium falciparum [2]): 33 nM

CCc1c(OCc2ccccc2)c(=O)ccn1CCCCCCNc1ccnc2cc(Cl)ccc12
IC50 (Plasmodium falciparum [5]): < 1000 nM

C[C@H]1[C@@H](OCC[N+]2(CCO[C@H]3O[C@@H]4O[C@@]5(C)CC[C@H]6[C@H](C)CC[C@@H]([C@H]3C)[C@@]46OO5)CCN(CCNc3ccnc4cc(Cl)ccc34)CC2)O[C@@H]2O[C@@]3(C)CC[C@H]4[C@H](C)CC[C@@H]1[C@@]24OO3
Activity (Plasmodium falciparum [5]): 30 nM

O=C(NCCCNc1ccnc2cc(Cl)ccc12)C(=O)N[C@@H]1C(=O)N(C2CCCCC2)[C@@H]1/C=C/c1ccccc1
IC50 (Plasmodium falciparum [4]): 34 nM

Cc1ccc(N2C(=O)[C@H](NC(=O)NCCCNc3cccc4cc(Cl)ccc34)[C@@H]2/C=C/c2ccccc2)cc1
IC50 (Plasmodium falciparum [4]): 42 nM

COc1cc(/C=C2\SC(=S)N(CCCCNc3ccnc4cc(Cl)ccc34)C2=O)cc(OC)c1OC
IC50 (Plasmodium falciparum [5]): < 100 nM

O=C(N[C@H](c1ccccc1)[C@H](O)C(=O)NCc1cn(CNc2ccnc3cc(Cl)ccc23)nn1)c1ccccc1
IC50 (Plasmodium falciparum [8]): 390 nM
IC50 (Plasmodium falciparum [4]): 280 nM

C[C@H]1[C@@H](OCc2ccc(C(=O)N(CCNc3ccnc4cc(Cl)ccc34)CC(=O)NC(C)(C)C)cc2)O[C@@H]2O[C@@]3(C)CC[C@H]4[C@H](C)CC[C@@H]1[C@@]24OO3
IC50 (Plasmodium falciparum [7]): 26 nM
IC50 (Plasmodium falciparum [8]): 19 nM

Clc1ccc2c(NCCCN3CCN(C(c4ccccc4)c4ccccc4)CC3)ccnc2c1
Activity (Plasmodium falciparum [1]): 0.5 nM
Activity (Plasmodium falciparum [2]): 1 nM
Activity (Plasmodium falciparum [3]): 2 nM

O=C(/C=C/c1ccc(Cl)cc1)c1cccc(Nc2ccnc3cc(Cl)ccc23)c1
inhibition (INH) [6]: 94%

Clc1ccc2c(NCCN3CCN(C(c4ccccc4)c4ccccc4)CC3)ccnc2c1
Activity (Plasmodium falciparum [1]): 0.5 nM
Activity (Plasmodium falciparum [2]): 1 nM
Activity (Plasmodium falciparum [3]): 2 nM

O=C(NCCNc1ccnc2cc(Cl)ccc12)C(=O)N[C@@H]1C(=O)N(C2CCCCC2)[C@@H]1/C=C/c1ccccc1
IC50 (Plasmodium falciparum [4]): 34 nM

Cc1ccc(N2C(=O)[C@H](NC(=O)NCCCCNc3ccnc4cc(Cl)ccc34)[C@@H]2/C=C/c2ccccc2)cc1
IC50 (Plasmodium falciparum [4]): 42 nM

CCc1c(OCc2ccccc2)c(=O)ccn1CCCCNc1ccnc2cc(Cl)ccc12
IC50 (Plasmodium falciparum [5]): < 1000 nM

C=C[C@H]1CN2CC[C@H]1C[C@H]2[C@H](OC(=O)C(C)NC(=O)c1cn(CC)c2cc3c(cc2c1=O)OCO3)c1ccnc2ccc(OC)cc12 (some centres undefined)
IC50 (Plasmodium falciparum [5]): 12 nM

O=C(N[C@H](c1ccccc1)[C@H](O)C(=O)NCc1cn(-c2ccccc2Nc2ccnc3cc(Cl)ccc23)nn1)c1ccccc1
IC50 (Plasmodium falciparum [8]): 390 nM
IC50 (Plasmodium falciparum [4]): 280 nM

O=C(/C=C/c1cccc(F)c1)c1cccc(Nc2ccnc3cc(Cl)ccc23)c1
inhibition (INH) [6]: 94%

O=C(/C=C/c1ccccc1Cl)c1cccc(Nc2ccnc3cc(Cl)ccc23)c1
inhibition (INH) [6]: 94%

Cc1ccc(N2C(=O)[C@@H](NC(=O)C(=O)NCCCCNc3ccnc4cc(Cl)ccc34)[C@H]2/C=C/c2ccccc2)cc1
IC50 (Plasmodium falciparum [4]): 34 nM

C[C@H]1[C@@H](OCc2cccc(C(=O)N(CCCCNc3ccnc4cc(Cl)ccc34)CC(=O)NC3CCCCC3)c2)O[C@@H]2O[C@@]3(C)CC[C@H]4[C@H](C)CC[C@@H]1[C@@]24OO3
IC50 (Plasmodium falciparum [7]): 26 nM
IC50 (Plasmodium falciparum [8]): 19 nM

CCCN1CNc2cc(Nc3ccnc4cc(Cl)ccc34)ccc2C1
IC50 (Plasmodium falciparum [8]): 220 nM
IC50 (Plasmodium falciparum [4]): 130 nM

Cc1ccc(N2C(=O)[C@H](NC(=O)NCCNc3cccc4cc(Cl)ccc34)[C@@H]2/C=C/c2ccccc2)cc1
IC50 (Plasmodium falciparum [4]): 42 nM

O=C(NCCCCCCNc1ccnc2cc(Cl)ccc12)C(=O)N[C@@H]1C(=O)N(C2CCCCC2)[C@@H]1/C=C/c1ccccc1
IC50 (Plasmodium falciparum [4]): 34 nM

Cc1ccc(N2C(=O)[C@@H](NC(=O)C(=O)NCCCCCCNc3ccnc4cc(Cl)ccc34)[C@H]2/C=C/c2ccccc2)cc1
IC50 (Plasmodium falciparum [4]): 34 nM

COc1c(C)n(CCCCCCNc2ccnc3cc(Cl)ccc23)ccc1=O
IC50 (Plasmodium falciparum [5]): < 1000 nM

C=C[C@H]1CN2CC[C@H]1C[C@H]2[C@H](OC(=O)C(C)NC(=O)c1cn(CC)c2ncccc2c1=O)c1ccnc2ccc(OC)cc12 (some centres undefined)
IC50 (Plasmodium falciparum [5]): 16 nM

CCc1c(O)c(=O)ccn1CCCNc1ccnc2cc(Cl)ccc12
IC50 (Plasmodium falciparum [5]): < 1000 nM

COc1cc(/C=C2\SC(=S)N(CCCNc3ccnc4cc(Cl)ccc34)C2=O)cc(OC)c1OC
IC50 (Plasmodium falciparum [5]): < 100 nM

COc1cc(NC(C)CCCNC2CCC3(CC2)OOC2(OO3)C3CC4CC(C3)CC2C4)c2ncccc2c1 (centres undefined)
IC50 (Plasmodium falciparum [4]): 21 nM

COc1c(C)n(CCCCNc2ccnc3cc(Cl)ccc23)ccc1=O
IC50 (Plasmodium falciparum [5]): < 1000 nM

COc1cc(NC(C)CCCNC(=O)CC2CCC3(CC2)OOC2(OO3)C3CC4CC(C3)CC2C4)c2ncccc2c1 (centres undefined)
IC50 (Plasmodium falciparum [4]): 21 nM
IC50 (Plasmodium berghei): 330 nM

Clc1ccc2c(NCCCN3CCN(C4C5CC6CC(C5)CC4C6)CC3)ccnc2c1 (centres undefined)
Activity (Plasmodium falciparum [1]): 0.5 nM
Activity (Plasmodium falciparum [2]): 1 nM
Activity (Plasmodium falciparum [3]): 2 nM

COc1cc(/C=C2\SC(=S)N(CCNc3ccnc4cc(Cl)ccc34)C2=O)cc(OC)c1OC
IC50 (Plasmodium falciparum [5]): < 100 nM

O=C(NCCCCNc1ccnc2cc(Cl)ccc12)N[C@H]1C(=O)N(C2CCCCC2)[C@H]1/C=C/c1ccccc1
IC50 (Plasmodium falciparum [4]): 42 nM

Clc1ccc2c(Nc3ccc4c(c3)NCN(Cc3ccccc3)C4)ccnc2c1
IC50 (Plasmodium falciparum [8]): 220 nM
IC50 (Plasmodium falciparum [4]): 130 nM

CN(C)c1ccc(/C=C2\SC(=S)N(CCCCNc3ccnc4cc(Cl)ccc34)C2=O)cc1
IC50 (Plasmodium falciparum [5]): < 100 nM

CC(=O)O[C@H](C(=O)OCCCNc1ccnc2cc(Cl)ccc12)[C@H](NC(=O)c1ccccc1)c1ccccc1
IC50 (Plasmodium falciparum [4]): 160 nM

Cc1ccc(N2C(=O)[C@@H](NC(=O)C(=O)NCCNc3ccnc4cc(Cl)ccc34)[C@H]2/C=C/c2ccccc2)cc1
IC50 (Plasmodium falciparum [4]): 34 nM

O=C1/C(=C/c2ccc([N+](=O)[O-])cc2)SC(=S)N1CCCNc1ccnc2cc(Cl)ccc12
IC50 (Plasmodium falciparum [5]): < 100 nM
